What follows are molecules tested against T1, human Cereblon WT GST-tagged protein (Homo sapiens, UniProt Q96SW2) (assay: CRBN binding, HTRF CEREBLON BINDING kit). Details: CRBN binding, HTRF CEREBLON BINDING kit.
T1 construct: purchased CISBIO 64BDCRBNPEH
T1 sequence (Q96SW2 whole entry): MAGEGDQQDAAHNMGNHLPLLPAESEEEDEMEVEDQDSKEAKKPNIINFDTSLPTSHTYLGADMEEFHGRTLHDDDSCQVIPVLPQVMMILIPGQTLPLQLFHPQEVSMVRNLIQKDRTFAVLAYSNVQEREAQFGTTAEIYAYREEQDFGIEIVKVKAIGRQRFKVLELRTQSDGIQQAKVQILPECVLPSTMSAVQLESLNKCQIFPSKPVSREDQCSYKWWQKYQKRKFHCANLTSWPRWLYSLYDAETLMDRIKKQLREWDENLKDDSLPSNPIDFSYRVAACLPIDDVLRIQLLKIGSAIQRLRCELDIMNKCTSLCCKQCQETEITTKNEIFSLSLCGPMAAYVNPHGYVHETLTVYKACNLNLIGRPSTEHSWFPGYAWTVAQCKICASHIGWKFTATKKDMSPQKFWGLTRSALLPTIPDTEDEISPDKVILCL
Method in brief: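 Binding inhibition was calculated from the 665/620 nm emission ratios, with blank wells and solvent wells as references. Test compounds competed for GST-tagged human Cereblon WT against a Thalidomide-Re reagent paired with GST Eu antibody. Plates were sealed and held at room temperature for 3 hours before the HTRF read.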
Molecule `O=C1CCC(c2cnc(F)c(CN3CCN(c4ccc(-c5cc(F)c6c(c5)C(=O)N(C(C(=O)Nc5nccs5)c5ncn7c5CCC7)C6)cc4)CC3)c2)C(=O)N1` (stereo not shown) [GT-07490, 2-(6,7-dihydro-5H-pyrrolo[1,2-c]imidazol-1-yl)-2-(6-(4-(4-((5-(2,6-dioxopiperidin-3-yl)-2-fluoropyridin-3-yl)methyl)piperazin-1-yl)phenyl)-4-fluoro-1-oxoisoindolin-2-yl)-N-(thiazol-2-yl)acetamide] has an IC50 of under 500 nM. Molecule `CN(Cc1cc(C2CCC(=O)NC2=O)cnc1F)C1CCN(c2ccc(-c3cc(F)c4c(c3)C(=O)N(C(C(=O)Nc3nccs3)c3ncn5c3CCC5)C4)cc2)CC1` (stereo not shown) [GT-07560, 2-(6,7-dihydro-5H-pyrrolo[1,2-c]imidazol-1-yl)-2-(6-(4-(4-(((5-(2,6-dioxopiperidin-3-yl)-2-fluoropyridin-3-yl)methyl)(methyl)amino)piperidin-1-yl)phenyl)-4-fluoro-1-oxoisoindolin-2-yl)-N-(thiazol-2-yl)acetamide] has an IC50 of under 500 nM. Molecule `O=C1CCC(c2cnc(F)c(CN3C[C@H]4C[C@@H]3CN4c3ccc(-c4cc(F)c5c(c4)C(=O)N(C(C(=O)Nc4nccs4)c4ncn6c4CCC6)C5)cc3)c2)C(=O)N1` (stereo partly drawn) [GT-07562, 2-(6,7-dihydro-5H-pyrrolo[1,2-c]imidazol-1-yl)-2-(6-(4-((1R,4R)-5-((5-(2,6-dioxopiperidin-3-yl)-2-fluoropyridin-3-yl)methyl)-2,5-diazabicyclo[2.2.1]heptan-2-yl)phenyl)-4-fluoro-1-oxoisoindolin-2-yl)-N-(thiazol-2-yl)acetamide] has an IC50 of under 500 nM. `Cc1cc(Nc2ncc(Cl)c(Nc3ccccc3S(=O)(=O)C(C)C)n2)c(OC(C)C)cc1C1CCN(Cc2cccc(N3CCC(=O)NC3=O)c2)CC1` [GT-07593, 1-(3-((4-(4-((5-chloro-4-((2-(isopropylsulfonyl)phenyl)amino)pyrimidin-2-yl)amino)-5-isopropoxy-2-methylphenyl)piperidin-1-yl)methyl)phenyl)dihydropyrimidine-2,4(1H,3H)-dione] was tested, and the IC50 was 500 to 1000 nM. Work on `Cc1cc(Nc2ncc(Cl)c(Nc3ccccc3S(=O)(=O)C(C)C)n2)c(OC(C)C)cc1C1CCN(Cc2cc(C3CCC(=O)NC3=O)cnc2F)CC1` (stereo not shown) [GT-07598, 3-(5-((4-(4-((5-chloro-4-((2-(isopropylsulfonyl)phenyl)amino)pyrimidin-2-yl)amino)-5-isopropoxy-2-methylphenyl)piperidin-1-yl)methyl)-6-fluoropyridin-3-yl)piperidine-2,6-dione] yielded an IC50 of 500 to 1000 nM. `Cc1cc(Nc2ncc(Cl)c(Nc3ccccc3S(=O)(=O)C(C)C)n2)c(OC(C)C)cc1C1CCN(Cc2cncc(C3CCC(=O)NC3=O)c2)CC1` (stereo not shown) [GT-07601, 3-(5-((4-(4-((5-chloro-4-((2-(isopropylsulfonyl)phenyl)amino)pyrimidin-2-yl)amino)-5-isopropoxy-2-methylphenyl)piperidin-1-yl)methyl)pyridin-3-yl)piperidine-2,6-dione] was tested, and the IC50 was 1000 to 1900 nM. In the case of `COc1cc(N2CCC(N3CCN(Cc4ccc(C5CCC(=O)NC5=O)cc4)CC3)CC2)ccc1Nc1ncc(Cl)c(Nc2ccccc2P(C)(C)=O)n1` (stereo not shown) [GT-07602, 3-(4-((4-(1-(4-((5-chloro-4-((2-(dimethylphosphoryl)phenyl)amino)pyrimidin-2-yl)amino)-3-methoxyphenyl)piperidin-4-yl)piperazin-1-yl)methyl)phenyl)piperidine-2,6-dione], the IC50 is reported as under 500 nM. In the case of `COc1cc(N2CCC(N3CCN(Cc4cccc(N5CCC(=O)NC5=O)c4)CC3)CC2)ccc1Nc1ncc(Cl)c(Nc2ccccc2P(C)(C)=O)n1` [GT-07604, 1-(3-((4-(1-(4-((5-chloro-4-((2-(dimethylphosphoryl)phenyl)amino)pyrimidin-2-yl)amino)-3-methoxyphenyl)piperidin-4-yl)piperazin-1-yl)methyl)phenyl)dihydropyrimidine-2,4(1H,3H)-dione], the IC50 is reported as 1000 to 1900 nM. With `COc1cc(N2CCC(N3CCN(Cc4cccc(NC5CCC(=O)NC5=O)c4)CC3)CC2)ccc1Nc1ncc(Cl)c(Nc2ccccc2P(C)(C)=O)n1` (stereo not shown) [GT-07605, 3-((3-((4-(1-(4-((5-chloro-4-((2-(dimethylphosphoryl)phenyl)amino)pyrimidin-2-yl)amino)-3-methoxyphenyl)piperidin-4-yl)piperazin-1-yl)methyl)phenyl)amino)piperidine-2,6-dione] the IC50 was 1000 to 1900 nM. Molecule `COc1cc(N2CCC(N3CCN(Cc4cc(C5CCC(=O)NC5=O)cnc4F)CC3)CC2)ccc1Nc1ncc(Cl)c(Nc2ccccc2P(C)(C)=O)n1` (stereo not shown) [GT-07611, 3-(5-((4-(1-(4-((5-chloro-4-((2-(dimethylphosphoryl)phenyl)amino)pyrimidin-2-yl)amino)-3-methoxyphenyl)piperidin-4-yl)piperazin-1-yl)methyl)-6-fluoropyridin-3-yl)piperidine-2,6-dione] has an IC50 of 500 to 1000 nM. `COc1cc(N2CCC(N3CCN(Cc4ccc(C5CCC(=O)NC5=O)cn4)CC3)CC2)ccc1Nc1ncc(Cl)c(Nc2ccccc2P(C)(C)=O)n1` (stereo not shown) [GT-07613, 3-(6-((4-(1-(4-((5-chloro-4-((2-(dimethylphosphoryl)phenyl)amino)pyrimidin-2-yl)amino)-3-methoxyphenyl)piperidin-4-yl)piperazin-1-yl)methyl)pyridin-3-yl)piperidine-2,6-dione] showed an IC50 of 500 to 1000 nM. For `COc1cc(N2CCC(N3CCN(Cc4cncc(C5CCC(=O)NC5=O)c4)CC3)CC2)ccc1Nc1ncc(Cl)c(Nc2ccccc2P(C)(C)=O)n1` (stereo not shown) [GT-07614, 3-(5-((4-(1-(4-((5-chloro-4-((2-(dimethylphosphoryl)phenyl)amino)pyrimidin-2-yl)amino)-3-methoxyphenyl)piperidin-4-yl)piperazin-1-yl)methyl)pyridin-3-yl)piperidine-2,6-dione], the IC50 was 1000 to 1900 nM. `COc1cc(N2CCC(N(C)Cc3cccc(N4CCC(=O)NC4=O)c3)CC2)ccc1Nc1ncc(Cl)c(Nc2ccccc2P(C)(C)=O)n1` [GT-07616, 1-(3-(((1-(4-((5-chloro-4-((2-(dimethylphosphoryl)phenyl)amino)pyrimidin-2-yl)amino)-3-methoxyphenyl)piperidin-4-yl)(methyl)amino)methyl)phenyl)dihydropyrimidine-2,4(1H,3H)-dione] showed an IC50 of 1000 to 1900 nM. `COc1cc(N2CCC(N(C)Cc3ccc(N4CCC(=O)NC4=O)cn3)CC2)ccc1Nc1ncc(Cl)c(Nc2ccccc2P(C)(C)=O)n1` [GT-07617, 1-(6-(((1-(4-((5-chloro-4-((2-(dimethylphosphoryl)phenyl)amino)pyrimidin-2-yl)amino)-3-methoxyphenyl)piperidin-4-yl)(methyl)amino)methyl)pyridin-3-yl)dihydropyrimidine-2,4(1H,3H)-dione] was tested, and the IC50 was 1000 to 1900 nM. `COc1cc(N2CCC(N(C)Cc3cncc(N4CCC(=O)NC4=O)c3)CC2)ccc1Nc1ncc(Cl)c(Nc2ccccc2P(C)(C)=O)n1` [GT-07695, 1-(5-(((1-(4-((5-chloro-4-((2-(dimethylphosphoryl)phenyl)amino)pyrimidin-2-yl)amino)-3-methoxyphenyl)piperidin-4-yl)(methyl)amino)methyl)pyridin-3-yl)dihydropyrimidine-2,4(1H,3H)-dione] was tested, and the IC50 was 1000 to 1900 nM. In the case of `COc1cc(N2CCC(N(C)Cc3cc(C4CCC(=O)NC4=O)cnc3F)CC2)ccc1Nc1ncc(Cl)c(Nc2ccccc2P(C)(C)=O)n1` (stereo not shown) [GT-07696, 3-(5-(((1-(4-((5-chloro-4-((2-(dimethylphosphoryl)phenyl)amino)pyrimidin-2-yl)amino)-3-methoxyphenyl)piperidin-4-yl)(methyl)amino)methyl)-6-fluoropyridin-3-yl)piperidine-2,6-dione], the IC50 is reported as under 500 nM. In the case of `COc1cc(N2CCC(N(C)Cc3ccc(C4CCC(=O)NC4=O)cn3)CC2)ccc1Nc1ncc(Cl)c(Nc2ccccc2P(C)(C)=O)n1` (stereo not shown) [GT-07698, 3-(6-(((1-(4-((5-chloro-4-((2-(dimethylphosphoryl)phenyl)amino)pyrimidin-2-yl)amino)-3-methoxyphenyl)piperidin-4-yl)(methyl)amino)methyl)pyridin-3-yl)piperidine-2,6-dione], the IC50 is reported as 1000 to 1900 nM. With `COc1cc(N2CCC(N(C)Cc3cncc(C4CCC(=O)NC4=O)c3)CC2)ccc1Nc1ncc(Cl)c(Nc2ccccc2P(C)(C)=O)n1` (stereo not shown) [GT-07699, 3-(5-(((1-(4-((5-chloro-4-((2-(dimethylphosphoryl)phenyl)amino)pyrimidin-2-yl)amino)-3-methoxyphenyl)piperidin-4-yl)(methyl)amino)methyl)pyridin-3-yl)piperidine-2,6-dione] the IC50 was 500 to 1000 nM. Molecule `CCc1cc2c(cc1N1CCC(N3CCN(Cc4cncc(N5CCC(=O)NC5=O)c4)CC3)CC1)C(C)(C)c1[nH]c3cc(C#N)ccc3c1C2=O` [GT-07702, 8-(4-(4-((5-(2,4-dioxotetrahydropyrimidin-1(2H)-yl)pyridin-3-yl)methyl)piperazin-1-yl)piperidin-1-yl)-9-ethyl-6,6-dimethyl-11-oxo-6,11-dihydro-5H-benzo[b]carbazole-3-carbonitrile] has an IC50 of under 500 nM. Molecule `CCc1cc2c(cc1N1CCC(N3CCN(Cc4cc(C5CCC(=O)NC5=O)cnc4F)CC3)CC1)C(C)(C)c1[nH]c3cc(C#N)ccc3c1C2=O` (stereo not shown) [GT-07703, 8-(4-(4-((5-(2,6-dioxopiperidin-3-yl)-2-fluoropyridin-3-yl)methyl)piperazin-1-yl)piperidin-1-yl)-9-ethyl-6,6-dimethyl-11-oxo-6,11-dihydro-5H-benzo[b]carbazole-3-carbonitrile] has an IC50 of under 500 nM. `CCc1cc2c(cc1N1CCC(N3CCN(Cc4ccnc(C5CCC(=O)NC5=O)c4)CC3)CC1)C(C)(C)c1[nH]c3cc(C#N)ccc3c1C2=O` (stereo not shown) [GT-07704, 8-(4-(4-((2-(2,6-dioxopiperidin-3-yl)pyridin-4-yl)methyl)piperazin-1-yl)piperidin-1-yl)-9-ethyl-6,6-dimethyl-11-oxo-6,11-dihydro-5H-benzo[b]carbazole-3-carbonitrile] gave an IC50 of 1000 to 1900 nM. For `CCc1cc2c(cc1N1CCC(N3CCN(Cc4ccc(C5CCC(=O)NC5=O)cn4)CC3)CC1)C(C)(C)c1[nH]c3cc(C#N)ccc3c1C2=O` (stereo not shown) [GT-07705, 8-(4-(4-((5-(2,6-dioxopiperidin-3-yl)pyridin-2-yl)methyl)piperazin-1-yl)piperidin-1-yl)-9-ethyl-6,6-dimethyl-11-oxo-6,11-dihydro-5H-benzo[b]carbazole-3-carbonitrile], the IC50 was under 500 nM.

— patent US20260274829A1, “NEW E3 UBIQUITIN LIGASE LIGAND, PROTEIN DEGRADATION AGENT AND USE THEREOF” (GLUETACS THERAPEUTICS (SHANGHAI) CO., LTD., priority 2023, published 2026)
